In ChEMBL document CHEMBL6083275, “Discovery and evaluation of HW161023 as a potent and orally active AAK1 inhibitor” (Bioorg Med Chem Lett, 2024):
pIC50: −log10 of the molar value.

What was measured:
[1] = target: AP2-associated protein kinase 1 (Homo sapiens, UniProt Q2M2I8); test: Inhibition of AAK1 (unknown origin)
[2] = Protein binding in human plasma assessed as unbound fraction; assay type: ADME, cell-free
[3] = Half-life in C57BL/6J mouse at 1 mg/kg, iv; assay type: ADME, organism-based; conditions: in vivo
[4] = Oral bioavailability in C57BL/6J mouse at 10 mg/kg; assay type: ADME, organism-based; conditions: in vivo
[5] = Metabolic stability in mouse liver microsomes assessed as half-life; assay type: ADME, Microsome
[6] = Metabolic stability in rat liver microsomes assessed as half-life; assay type: ADME, Microsome
[7] = Tmax in C57BL/6J mouse at 10 mg/kg, po; assay type: ADME, organism-based; conditions: in vivo
[8] = Clearance in C57BL/6J mouse at 1 mg/kg, iv; assay type: ADME, organism-based; conditions: in vivo
[9] = Metabolic stability in human liver microsomes assessed as half-life; assay type: ADME, Microsome
[10] = Protein binding in mouse plasma assessed as unbound fraction; assay type: ADME, cell-free
[11] = Apparent volume of distribution in C57BL/6J mouse at 1 mg/kg, iv; assay type: ADME, organism-based; conditions: in vivo, read-out: Vz
CYP2D6 = CYP2D6 (Homo sapiens, UniProt P10635); test: Inhibition of CYP2D6 (unknown origin) at 10 uM relative to control; assay type: ADME
[12] = AUC (0 to 24 hrs) in C57BL/6J mouse at 1 mg/kg, iv; assay type: ADME, organism-based; conditions: in vivo
[13] = Protein binding in rat plasma assessed as unbound fraction; assay type: ADME, cell-free
[14] = Metabolic stability in dog liver microsomes assessed as half-life; assay type: ADME, Canis lupus familiaris, Microsome
[15] = Protein binding in dog plasma assessed as unbound fraction; assay type: ADME, cell-free, Canis lupus familiaris
[16] = target: Voltage-gated inwardly rectifying potassium channel KCNH2 (Homo sapiens, UniProt Q12809); test: Inhibition of human ERG by patch clamp assay; assay type: toxicity
CYP3A4 [17] = target: T1, CYP3A4 (Homo sapiens, UniProt P08684); test: Inhibition of CYP3A4 (unknown origin) using testosterone as substrate at 10 uM relative to control; assay type: ADME; conditions: probe testosterone
CYP3A4 [18] = target: T1, CYP3A4; test: Inhibition of CYP3A4 (unknown origin) using midazolam as substrate at 10 uM relative to control; assay type: ADME; conditions: probe midazolam
[19] = Half-life in C57BL/6J mouse at 10 mg/kg, po; assay type: ADME, organism-based; conditions: in vivo
[20] = Cmax in C57BL/6J mouse at 10 mg/kg, po; assay type: ADME, organism-based; conditions: in vivo
CYP2C9 = CYP2C9 (Homo sapiens, UniProt P11712); test: Inhibition of CYP2C9 (unknown origin) at 10 uM relative to control; assay type: ADME
[21] = Cytotoxicity against human HepG2 cells; assay type: toxicity, cell-based
[22] = AUC (0 to 24 hrs) in C57BL/6J mouse at 10 mg/kg, po; assay type: ADME, organism-based; conditions: in vivo
[23] = Apparent volume of distribution in dog at 1 mg/kg, iv; assay type: ADME, organism-based, Canis lupus familiaris; conditions: in vivo, read-out: Vz
[24] = Clearance in rat at 1 mg/kg, iv; assay type: ADME, organism-based; conditions: in vivo
[25] = AUC (0 to 24 hrs) in dog at 5 mg/kg, po; assay type: ADME, organism-based, Canis lupus familiaris; conditions: in vivo
[26] = Apparent volume of distribution in rat at 1 mg/kg, iv; assay type: ADME, organism-based; conditions: in vivo, read-out: Vz
[27] = Oral bioavailability in dog at 5 mg/kg; assay type: ADME, organism-based, Canis lupus familiaris; conditions: in vivo
[28] = AUC (0 to 24 hrs) in rat at 10 mg/kg, po; assay type: ADME, organism-based; conditions: in vivo
[29] = Half-life in rat at 1 mg/kg, iv; assay type: ADME, organism-based; conditions: in vivo
[30] = Clearance in dog at 1 mg/kg, iv; assay type: ADME, organism-based, Canis lupus familiaris; conditions: in vivo
[31] = Tmax in rat at 10 mg/kg, po; assay type: ADME, organism-based; conditions: in vivo
[32] = Half-life in dog at 1 mg/kg, iv; assay type: ADME, organism-based, Canis lupus familiaris; conditions: in vivo
[33] = Tmax in dog at 5 mg/kg, po; assay type: ADME, organism-based, Canis lupus familiaris; conditions: in vivo
[34] = Oral bioavailability in rat at 10 mg/kg; assay type: ADME, organism-based; conditions: in vivo
[35] = Ratio of AUC (0 to 24 hrs) in C57BL/6J mouse brain to plasma; assay type: ADME; conditions: read-out: Ratio AUC

T1 sequence (P08684 whole entry): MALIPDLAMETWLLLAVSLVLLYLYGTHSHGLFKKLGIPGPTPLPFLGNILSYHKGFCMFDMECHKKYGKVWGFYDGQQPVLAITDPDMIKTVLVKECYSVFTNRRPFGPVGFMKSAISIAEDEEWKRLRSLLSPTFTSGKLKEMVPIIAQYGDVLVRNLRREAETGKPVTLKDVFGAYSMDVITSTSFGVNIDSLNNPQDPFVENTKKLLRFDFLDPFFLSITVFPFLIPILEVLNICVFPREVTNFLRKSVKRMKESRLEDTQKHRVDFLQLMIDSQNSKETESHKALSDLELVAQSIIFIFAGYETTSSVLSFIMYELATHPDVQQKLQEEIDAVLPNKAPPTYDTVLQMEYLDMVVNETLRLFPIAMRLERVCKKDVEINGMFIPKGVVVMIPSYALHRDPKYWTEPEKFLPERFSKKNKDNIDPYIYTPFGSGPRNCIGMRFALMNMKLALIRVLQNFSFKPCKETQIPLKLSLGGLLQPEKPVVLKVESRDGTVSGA
Sequence of AP2-associated protein kinase 1 (Q2M2I8 whole entry): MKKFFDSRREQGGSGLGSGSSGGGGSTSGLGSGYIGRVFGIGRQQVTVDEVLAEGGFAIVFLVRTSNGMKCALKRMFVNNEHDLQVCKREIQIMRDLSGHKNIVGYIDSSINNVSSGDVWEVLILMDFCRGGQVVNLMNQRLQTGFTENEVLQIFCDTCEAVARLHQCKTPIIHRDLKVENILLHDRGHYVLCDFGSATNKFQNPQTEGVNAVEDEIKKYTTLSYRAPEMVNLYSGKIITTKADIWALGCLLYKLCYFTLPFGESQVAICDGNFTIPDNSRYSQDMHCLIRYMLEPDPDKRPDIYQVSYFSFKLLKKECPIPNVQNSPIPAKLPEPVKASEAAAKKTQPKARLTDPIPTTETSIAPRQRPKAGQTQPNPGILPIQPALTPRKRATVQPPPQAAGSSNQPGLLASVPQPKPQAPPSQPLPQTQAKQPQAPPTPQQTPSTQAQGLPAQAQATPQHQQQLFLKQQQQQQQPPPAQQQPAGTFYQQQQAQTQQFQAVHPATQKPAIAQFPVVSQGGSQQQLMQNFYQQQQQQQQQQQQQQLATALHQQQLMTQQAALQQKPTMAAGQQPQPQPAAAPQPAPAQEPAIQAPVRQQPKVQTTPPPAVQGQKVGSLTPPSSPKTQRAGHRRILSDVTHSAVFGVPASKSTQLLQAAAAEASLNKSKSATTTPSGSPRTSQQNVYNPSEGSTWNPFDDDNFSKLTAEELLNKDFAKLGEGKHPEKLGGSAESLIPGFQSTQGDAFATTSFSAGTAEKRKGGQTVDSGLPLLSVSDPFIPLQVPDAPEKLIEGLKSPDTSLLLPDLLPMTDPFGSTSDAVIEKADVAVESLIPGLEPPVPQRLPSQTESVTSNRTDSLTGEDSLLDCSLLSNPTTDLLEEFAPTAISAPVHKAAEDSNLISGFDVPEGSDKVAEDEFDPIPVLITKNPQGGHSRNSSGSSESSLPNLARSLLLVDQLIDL
Sequence of CYP2C9 (P11712 whole entry): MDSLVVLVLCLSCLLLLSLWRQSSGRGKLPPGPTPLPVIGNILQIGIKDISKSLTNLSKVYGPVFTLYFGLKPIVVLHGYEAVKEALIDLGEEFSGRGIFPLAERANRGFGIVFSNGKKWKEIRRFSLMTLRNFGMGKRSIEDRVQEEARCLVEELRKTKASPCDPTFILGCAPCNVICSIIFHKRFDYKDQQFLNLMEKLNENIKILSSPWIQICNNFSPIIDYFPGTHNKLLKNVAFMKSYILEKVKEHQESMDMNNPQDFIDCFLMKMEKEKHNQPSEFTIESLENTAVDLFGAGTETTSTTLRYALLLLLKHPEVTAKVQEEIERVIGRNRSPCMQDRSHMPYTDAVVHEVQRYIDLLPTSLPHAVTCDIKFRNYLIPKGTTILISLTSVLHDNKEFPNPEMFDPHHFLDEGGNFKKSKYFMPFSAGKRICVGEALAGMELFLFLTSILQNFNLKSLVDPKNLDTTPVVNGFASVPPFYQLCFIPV
Sequence of CYP2D6 (P10635 whole entry): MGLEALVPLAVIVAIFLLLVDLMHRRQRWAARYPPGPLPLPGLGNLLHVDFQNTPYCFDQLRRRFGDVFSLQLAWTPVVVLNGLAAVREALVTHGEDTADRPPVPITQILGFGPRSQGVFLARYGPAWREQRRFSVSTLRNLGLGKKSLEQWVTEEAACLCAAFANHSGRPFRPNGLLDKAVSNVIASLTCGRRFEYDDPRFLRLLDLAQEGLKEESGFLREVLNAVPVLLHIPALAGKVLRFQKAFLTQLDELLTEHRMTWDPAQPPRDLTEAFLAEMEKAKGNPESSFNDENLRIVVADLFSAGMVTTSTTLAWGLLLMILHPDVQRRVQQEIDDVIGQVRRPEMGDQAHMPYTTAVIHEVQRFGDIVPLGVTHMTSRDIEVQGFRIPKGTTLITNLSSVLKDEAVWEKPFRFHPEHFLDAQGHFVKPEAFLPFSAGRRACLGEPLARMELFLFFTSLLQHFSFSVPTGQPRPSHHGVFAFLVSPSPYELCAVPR
Sequence of Voltage-gated inwardly rectifying potassium channel KCNH2 (Q12809 whole entry): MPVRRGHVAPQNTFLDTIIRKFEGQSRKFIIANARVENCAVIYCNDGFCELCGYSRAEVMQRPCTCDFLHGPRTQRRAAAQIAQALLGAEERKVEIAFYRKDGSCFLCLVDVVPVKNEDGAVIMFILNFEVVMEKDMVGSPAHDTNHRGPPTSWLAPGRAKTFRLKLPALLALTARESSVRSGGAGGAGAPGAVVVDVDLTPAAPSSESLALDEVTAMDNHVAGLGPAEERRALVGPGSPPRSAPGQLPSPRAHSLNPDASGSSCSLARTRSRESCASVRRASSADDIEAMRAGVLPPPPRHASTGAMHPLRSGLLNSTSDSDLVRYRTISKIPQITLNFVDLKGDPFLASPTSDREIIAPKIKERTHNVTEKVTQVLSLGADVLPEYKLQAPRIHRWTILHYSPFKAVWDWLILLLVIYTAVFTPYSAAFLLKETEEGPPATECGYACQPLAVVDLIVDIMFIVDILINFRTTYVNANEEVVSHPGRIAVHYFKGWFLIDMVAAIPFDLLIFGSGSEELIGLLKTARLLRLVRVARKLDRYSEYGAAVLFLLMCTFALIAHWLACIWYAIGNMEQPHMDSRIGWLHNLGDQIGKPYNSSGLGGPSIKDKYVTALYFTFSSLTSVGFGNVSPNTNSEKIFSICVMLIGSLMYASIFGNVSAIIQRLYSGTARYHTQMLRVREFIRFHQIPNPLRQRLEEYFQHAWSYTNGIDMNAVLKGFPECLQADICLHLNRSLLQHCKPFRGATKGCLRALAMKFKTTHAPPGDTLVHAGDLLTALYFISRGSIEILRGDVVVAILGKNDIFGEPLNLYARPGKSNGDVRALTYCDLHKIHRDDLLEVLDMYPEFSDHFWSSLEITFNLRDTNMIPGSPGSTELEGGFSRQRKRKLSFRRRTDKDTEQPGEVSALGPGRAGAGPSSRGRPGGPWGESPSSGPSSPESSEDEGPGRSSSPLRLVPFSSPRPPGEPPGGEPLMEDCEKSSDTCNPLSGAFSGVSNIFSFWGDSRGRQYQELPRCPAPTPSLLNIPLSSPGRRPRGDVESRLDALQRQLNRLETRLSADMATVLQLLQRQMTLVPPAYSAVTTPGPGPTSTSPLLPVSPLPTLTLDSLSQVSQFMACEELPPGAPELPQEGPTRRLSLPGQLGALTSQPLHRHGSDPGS

Compound	pIC50 [1]	fraction unbound [2]	half-life [3] [min]	bioavailability [4] [%]	half-life [5] [min]	half-life [6] [min]	Tmax [7] [h]	clearance [8] [mL/min/kg]	half-life [9] [min]	fraction unbound [10]	Vd [11] [L/kg]	inhibition at 10 µM (CYP2D6) [%]	AUC(0-t) [12] [ng·h/mL]	fraction unbound [13]	half-life [14] [min]	fraction unbound [15]	half-life [19] [min]	Cmax [20] [ng/mL]	AUC(0-t) [22] [ng·h/mL]	pIC50 [16]	other results
CC(C)C[C@](C)(N)COc1ccc(-c2ccnc(C(F)F)c2)c2nc(C(F)F)cn12	< 7.70																				
CC(C)C[C@](C)(N)COc1ccc(-c2ccnc(C(F)F)c2)n2cncc12		0.23	168	143	134	111	1	45	127	0.107	11	81.1	318	0.213	103	0.195	196	706	4550	4.52	inhibition at 10 µM (CYP3A4 [17]): < 20%; inhibition at 10 µM (CYP3A4 [18]): < 20%; inhibition at 10 µM (CYP2C9): < 20%; pIC50 [21]: 4.37
CC(C)C[C@](C)(N)COc1ccc(-c2ccnc(C(F)F)c2)nc1C(F)F [PILAVAPADIN]	8.30	0.0875	1040	103	156	96.5	1.17	12.2	132	0.02	18	< 20	892	0.0894	66.5	0.0417	1180	718	9150	5.47	Vd [23]: 5.3 L/kg; clearance [24]: 28.3 mL/min/kg; AUC(0-t) [25]: 4740 ng·h/mL; Vd [26]: 25 L/kg; bioavailability [27]: 116%; AUC(0-t) [28]: 3790 ng·h/mL; half-life [29]: 594 min; inhibition at 10 µM (CYP3A4 [17]): < 20%; inhibition at 10 µM (CYP3A4 [18]): < 20%; clearance [30]: 20 mL/min/kg; Tmax [31]: 6.7 h; half-life [32]: 192 min; Tmax [33]: 2.3 h; inhibition at 10 µM (CYP2C9): < 20%; bioavailability [34]: 77%; pIC50 [21]: 5.02; Kp [35]: 13.9
CC(C)C[C@](C)(N)COc1ccc(-c2ccnc(C(F)F)c2)n2ccnc12	< 7.70																				

Now from value to compound, other results behind:

pIC50 [1]	fraction unbound [2]	half-life [3] [min]	bioavailability [4] [%]	half-life [5] [min]	half-life [6] [min]	Tmax [7] [h]	clearance [8] [mL/min/kg]	half-life [9] [min]	fraction unbound [10]	Vd [11] [L/kg]	inhibition at 10 µM (CYP2D6) [%]	AUC(0-t) [12] [ng·h/mL]	fraction unbound [13]	half-life [14] [min]	fraction unbound [15]	half-life [19] [min]	Cmax [20] [ng/mL]	AUC(0-t) [22] [ng·h/mL]	Compound	pIC50 [16]	other results
< 7.70																			Cc1cnc2c(-c3ccnc(C(F)F)c3)ccc(OC[C@@](C)(N)CC(C)C)n12		
						0.8										192	407	2340	CC(C)C[C@](C)(N)COc1ccc(-c2ccnc(C(F)F)c2)c2cncn12		
